These results are taken from ChEMBL document CHEMBL4513161, “CO-ADD screening of MMV (CH) - Pandemic Response Box” (2021).

In brackets after ≈: the same amount, converted by molar mass.

Experiment [1] relates to HEK293. As to the kind of experiment: cells. Format: functional, Homo sapiens, ATCC CRL1573. The settings on record: Homo sapiens, ATCC CRL1573, HEK293; ASSAY_TEST Inhibition of Cell Viability; detection method Resazurin; Fluorescence (ex560/em590); MEDIA DMEM with 10% FBS; plate type 384well; TC; CORNING #3712; time 18 hr; read-out: CC50. For orientation: Alamar Blue is a resazurin reagent that responds to reducing activity.

Experiment [2] deals with Pseudomonas aeruginosa. As to the kind of experiment: Antibacterial activity against Pseudomonas aeruginosa PAO397 [PAO1 d(mexAB-oprM) d(mexCD-oprJ) d(mexEF-oprN) d(mexJKL) d(mexXY) d(opmH)] (CO-ADD:GN_211); MIC in CAMBH media using NBS plates, by OD(600). Format: functional. The following applies: ASSAY_TEST Inhibition of Bacterial Growth, detection method Absorption (OD600), MEDIA CAMHB, plate type 384well, CORNING #3640, time 18 hr.

Experiment [3] concerns Cryptococcus neoformans.
Description: Antifungal activity against Cryptococcus neoformans H99 ATCC 208821 (CO-ADD:FG_002); MIC in YNB media using NBS plates, by Resazurin OD(600-570)
In experiment [4] the test system is Staphylococcus aureus. As to the kind of experiment: microbe, parasite or virus in culture. The settings on record: ATCC 43300, 18 h, ASSAY_TEST Inhibition of Bacterial Growth, detection method Absorption (OD600), MEDIA CAMHB, plate type 384well, NBS, CORNING #3640.
Description: Antibacterial activity against Staphylococcus aureus MRSA ATCC 43300 (CO-ADD:GP_020); MIC in CAMBH media, using NBS plates, by OD(600)
For experiment [5], the system named is Escherichia coli. As to the kind of experiment: microbe, parasite or virus in culture. The following applies: ATCC 25922, 18 h, ASSAY_TEST Inhibition of Bacterial Growth, detection method Absorption (OD600), MEDIA CAMHB, plate type 384well, NBS, CORNING #3640.
Description: Antibacterial activity against Escherichia coli ATCC 25922 (CO-ADD:GN_001); MIC in CAMBH media using NBS plates, by OD(600)
Experiment [6] has as its system Klebsiella pneumoniae. As to the kind of experiment: microbe, parasite or virus in culture. The settings on record: ATCC 700603, 18 h, ASSAY_TEST Inhibition of Bacterial Growth, detection method Absorption (OD600), MEDIA CAMHB, plate type 384well, NBS, CORNING #3640.
Description: Antibacterial activity against Klebsiella pneumoniae MDR ATCC 70063 (CO-ADD:GN_003); MIC in CAMBH media using NBS plates, by OD(600)
Experiment [7] has as its system Pseudomonas aeruginosa. Put plainly: microbe, parasite or virus in culture. The settings on record: ATCC 27853, 18 h, ASSAY_TEST Inhibition of Bacterial Growth, detection method Absorption (OD600), MEDIA CAMHB, plate type 384well, NBS, CORNING #3640.
Description: Antibacterial activity against Pseudomonas aeruginosa ATCC 27853 (CO-ADD:GN_042); MIC in CAMBH media using NBS plates, by OD(600)
Experiment [8] relates to Acinetobacter baumannii. Put plainly: microbe, parasite or virus in culture. The following applies: ATCC 19606, 18 h, ASSAY_TEST Inhibition of Bacterial Growth, detection method Absorption (OD600), MEDIA CAMHB, plate type 384well, NBS, CORNING #3640.
Description: Antibacterial activity against Acinetobacter baumannii ATCC 19606 (CO-ADD:GN_034); MIC in CAMBH media using NBS plates, by OD600
Experiment [9] has as its system Candida albicans. As to the kind of experiment: microbe, parasite or virus in culture. The settings on record: ATCC 90028, ASSAY_TEST Inhibition of Fungal Growth, detection method Absorption (OD530), plate type 384well, NBS, CORNING #3640.
Description: Antifungal activity against Candida albicans ATCC 90028 (CO-ADD:FG_001); MIC in YNB media using NBS plates, by OD630

For `C[C@H]1CC[C@@]2(O)C(C)(C)[C@@H]3CC[C@@]2(C)[C@H]1C3`, the CC50 in [1] was more than 20 µM. The MIC in experiment [2], in experiment [3], in [4], in experiment [5], in experiment [6] and in experiment [7] was more than 20 µM each time. For the same molecule, the MIC in experiment [8] and in experiment [9] was more than 20 µM in each case.

On to `O=S(=O)(NCB(O)O)c1cc2c(Cl)ccc(Cl)c2s1`, for which the CC50 in experiment [1] is more than 20 µM. The MIC in experiment [2] was more than 20 µM; in experiment [3] it was more than 20 µM; in [4], 10 µM (≈ 3.4 µg/mL); in [5], more than 20 µM; in experiment [6], more than 20 µM; in experiment [7] it was more than 20 µM. For the same molecule, the MIC in experiment [8] and in experiment [9] was more than 20 µM each time.

`COc1nc2ccc(Br)cc2cc1[C@@H](c1ccccc1)[C@@](O)(CCN(C)C)c1cccc2ccccc12` [BEDAQUILINE]: the CC50 in experiment [1] is more than 20 µM. Moreover, the MIC in experiment [2], in experiment [3], in experiment [4], in experiment [5], in experiment [6] and in experiment [7] was more than 20 µM each time. Also, the MIC in experiment [8] and in [9] was more than 20 µM throughout.

`CCc1nc(N)nc(N)c1C#CCc1ccccc1`: the CC50 in [1] was more than 20 µM. For the same molecule, the MIC was more than 20 µM in experiment [2]; more than 20 µM in experiment [3]; 20 µM (≈ 5.05 µg/mL) in experiment [4]; more than 20 µM in experiment [5]; more than 20 µM in experiment [6]; more than 20 µM in experiment [7]. The MIC in experiment [8] and in experiment [9] was more than 20 µM each time.

As to `O=C(CP(=O)(O)O)NCCc1cccc(Oc2ccccc2)c1`, the CC50 in experiment [1] is more than 20 µM. Besides, the MIC in experiment [2], in [3], in experiment [4], in experiment [5], in experiment [6] and in experiment [7] was more than 20 µM each time. For the same molecule, the MIC in experiment [8] and in [9] was more than 20 µM each time.

On to `NC(=O)c1ccc(I)c([N+](=O)[O-])c1` [INIPARIB], for which the half-maximal cytotoxic concentration (CC50) in experiment [1] is more than 20 µM. Besides, the MIC in experiment [2], in [3], in experiment [4], in experiment [5], in experiment [6] and in [7] was more than 20 µM each time. For the same molecule, the MIC in [8] and in experiment [9] was more than 20 µM throughout.

Take `COc1ccc(C[C@@H](C)[C@@H](C)Cc2ccc(OC)c(OC)c2)cc1OC` [TERAMEPROCOL]: in [1], the CC50 is more than 20 µM. The MIC in experiment [2], in experiment [3], in experiment [4], in [5], in experiment [6] and in experiment [7] was more than 20 µM each time. Also, the MIC in [8] and in [9] was more than 20 µM throughout.

Turning to `COc1cc(Cc2cc(N)nc(N)n2)cc(OC)c1OC`, the CC50 in experiment [1] is more than 20 µM. Besides, the MIC was 5 µM (≈ 1.45 µg/mL) in [2]; more than 20 µM in experiment [3]; 5 µM (≈ 1.45 µg/mL) in [4]; 2.5 µM (≈ 0.726 µg/mL) in experiment [5]; 10 µM (≈ 2.9 µg/mL) in [6]; 20 µM (≈ 5.81 µg/mL) in [7]. Besides, the MIC in [8] and in experiment [9] was more than 20 µM throughout.

As to `Cc1cc(O)c2c(c1)C(=O)c1c(I)c(O)c(I)c(O)c1C2=O`, in [1], the CC50 is more than 20 µM. The MIC is more than 20 µM in experiment [2]; more than 20 µM in experiment [3]; 20 µM (≈ 10.4 µg/mL) in [4]; more than 20 µM in [5]; more than 20 µM in experiment [6]; more than 20 µM in experiment [7]. Also, the MIC in [8] and in experiment [9] was more than 20 µM in each case.

As for `COc1c(NC(=O)[C@H]2CC[C@@H](COc3ccc([N+](=O)[O-])cc3)CC2)c(F)cc2c(=O)c(C(=O)O)cn(C3CC3)c12`, in experiment [1], the CC50 is more than 20 µM. The MIC was more than 20 µM in experiment [2]; more than 20 µM in experiment [3]; 20 µM (≈ 11.1 µg/mL) in [4]; more than 20 µM in [5]; more than 20 µM in experiment [6]; more than 20 µM in [7]. The MIC in [8] and in experiment [9] was more than 20 µM throughout.

Regarding `CCCCc1ccc(C(=O)O)nc1` [FUSARIC ACID], in [1], the CC50 is more than 20 µM. Further, the MIC in experiment [2], in experiment [3], in [4], in experiment [5], in [6] and in experiment [7] was more than 20 µM throughout. In addition, the MIC in experiment [8] and in experiment [9] was more than 20 µM each time.

For `Cn1cc(NC(=O)c2cc(NC(=O)c3ccc(/C=C/c4cnc5ccccc5c4)cc3)cn2C)cc1C(=O)NCCN1CCOCC1` [MGB-BP-3], the CC50 in experiment [1] amounted to 1.71 µM. Also, the MIC in [2] was more than 20 µM; in experiment [3], more than 20 µM; in [4], 1.25 µM (≈ 0.79 µg/mL); in experiment [5] it was more than 20 µM; in experiment [6] it was more than 20 µM; in experiment [7], more than 20 µM. Moreover, the MIC in [8] and in experiment [9] was more than 20 µM in each case.

`Nc1nc(O)c(Br)c(-c2cccc(Cl)c2)n1`: in [1], the CC50 is more than 20 µM. In addition, the MIC in experiment [2], in experiment [3], in experiment [4], in experiment [5], in [6] and in [7] was more than 20 µM throughout. Moreover, the MIC in experiment [8] and in [9] was more than 20 µM throughout.

Turning to `CC(C)c1ccc(COc2cccc(-c3cc([S+](C)[O-])c(C#N)c(=O)[nH]3)c2)cc1` (stereo not given), the 50% cytotoxic concentration (CC50) in experiment [1] was more than 20 µM. Further, the MIC in experiment [2], in experiment [3], in [4], in experiment [5], in [6] and in [7] was more than 20 µM throughout. In addition, the MIC in experiment [8] and in [9] was more than 20 µM in each case.

For `CC(=N)N1CC[C@H](SC2=C(C(=O)O)N3C(=O)[C@@H]([C@@H](C)O)[C@H]3C2)C1`, the CC50 in experiment [1] was more than 20 µM. Also, the MIC in experiment [2], in experiment [3], in experiment [4], in experiment [5], in experiment [6] and in experiment [7] was more than 20 µM throughout. Also, the MIC in experiment [8] and in experiment [9] was more than 20 µM in each case.

Regarding `O=C(NCc1ncc(C(F)(F)F)cc1Cl)c1c(Cl)cccc1Cl`, the CC50 in experiment [1] was more than 20 µM. In addition, the MIC in experiment [2], in experiment [3], in experiment [4], in experiment [5], in experiment [6] and in experiment [7] was more than 20 µM throughout. Besides, the MIC in experiment [8] and in experiment [9] was more than 20 µM throughout.

For the molecule `c1ccc(Cn2c(-c3ccccn3)nc3ccccc32)cc1`, the CC50 in experiment [1] is more than 20 µM. The MIC in experiment [2], in experiment [3], in experiment [4], in experiment [5], in experiment [6] and in [7] was more than 20 µM throughout. The MIC in experiment [8] and in experiment [9] was more than 20 µM throughout.

As to `O=C1[C@H](CC[C@H](O)c2ccc(F)cc2)[C@@H](c2ccc(O)cc2)N1c1ccc(F)cc1` [EZETIMIBE], the CC50 in [1] is more than 20 µM. Further, the MIC in experiment [2], in [3], in experiment [4], in [5], in experiment [6] and in experiment [7] was more than 20 µM throughout. Also, the MIC in experiment [8] and in experiment [9] was more than 20 µM each time.

`CCCCCCCc1[nH]c2ccccc2c(=O)c1O`: the CC50 in [1] was more than 20 µM. Further, the MIC in experiment [2], in experiment [3], in experiment [4], in [5], in [6] and in experiment [7] was more than 20 µM in each case. Moreover, the MIC in experiment [8] and in experiment [9] was more than 20 µM each time.

As to `O=C1c2cccc3cccc(c23)C(=O)N1CC1CO1` (stereo not given), the CC50 in experiment [1] amounted to 4.49 µM. For the same molecule, the MIC in experiment [2] is more than 20 µM; in [3], more than 20 µM; in [4], 20 µM (≈ 5.07 µg/mL); in experiment [5], more than 20 µM; in experiment [6], more than 20 µM; in [7], more than 20 µM. Also, the MIC in experiment [8] and in experiment [9] was more than 20 µM each time.

As a reminder, the CC50 is the concentration giving 50% cytotoxicity.
